Results reported in patent US12660819B2, “Herbicidal derivatives” (SYNGENTA CROP PROTECTION AG, priority 2020, dated 2026).

How the values were obtained:
Format in all cases: in vivo
[1] = system: Zea mays (ZEAMX); experiment: Pre-emergence Test (glasshouse, percentage damage to the plant); details: 1000 g/ha unless otherwise stated, five-point scale
[2] = system: Echinochloa crus-galli (ECHCG); experiment: as above; details: 1000 g/ha unless otherwise stated, five-point scale
[3] = system: Amaranthus retoflexus (AMARE); experiment: as above; details: 1000 g/ha unless otherwise stated, five-point scale
[4] = system: Setaria faberi (SETFA); experiment: Post-emergence Test (glasshouse, percentage damage to the plant); details: post-emergence spray, 1000 g/ha unless otherwise stated, evaluated after 13 days
In short: (§1)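 Seeds are sown in standard soil under controlled glasshouse conditions. The pots are then sprayed at 1000 g/ha, unless otherwise stated, with compound in acetone/water (50:50) containing 0.5% Tween 20. After 13 days further growth, percentage plant damage is scored from 1 (0-20%) to 5 (81-100%).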

[5] = system: Ipomoea hederacea (IPOHE); experiment: as above; details: post-emergence spray, 1000 g/ha unless otherwise stated, evaluated after 13 days
In short: as §1

[6] = system: Echinochloa crus-galli (ECHCG); experiment: as above; details: post-emergence spray, 1000 g/ha unless otherwise stated, evaluated after 13 days
In short: (§2)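 After sowing in standard soil, pots were kept at 24/16 °C (day/night), 14 h light and 65% humidity. They were sprayed at 1000 g/ha unless otherwise stated, watered twice daily, and assessed for percentage damage at 13 days on a 1–5 scale.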

[7] = system: Zea mays (ZEAMX); experiment: as above; details: post-emergence spray, 1000 g/ha unless otherwise stated, evaluated after 13 days
In short: as §1

[8] = system: Amaranthus retoflexus (AMARE); experiment: as above; details: post-emergence spray, 1000 g/ha unless otherwise stated, evaluated after 13 days
In short: as §2

[9] = system: Abutilon theophrasti (ABUTH); experiment: as above; details: post-emergence spray, 1000 g/ha unless otherwise stated, evaluated after 13 days
In short: as §2

[10] = system: Abutilon theophrasti (ABUTH); experiment: Pre-emergence Test (glasshouse, percentage damage to the plant); details: 1000 g/ha unless otherwise stated, five-point scale
[11] = system: Ipomoea hederacea (IPOHE); experiment: as above; details: 1000 g/ha unless otherwise stated, five-point scale
[12] = system: Setaria faberi (SETFA); experiment: as above; details: 1000 g/ha unless otherwise stated, five-point scale

| Compound | percentage damage to the plant, ZEAMX [1] | percentage damage to the plant, ECHCG [2] | percentage damage to the plant, AMARE [3] | Post-emergence Test SETFA, percentage damage to the plant (five-point scale) [4] | Post-emergence Test IPOHE, percentage damage to the plant (five-point scale) [5] | Post-emergence Test ECHCG, percentage damage to the plant (five-point scale) [6] | Post-emergence Test ZEAMX, percentage damage to the plant (five-point scale) [7] | Post-emergence Test AMARE, percentage damage to the plant (five-point scale) [8] | Post-emergence Test ABUTH, percentage damage to the plant (five-point scale) [9] | percentage damage to the plant, ABUTH [10] | percentage damage to the plant, IPOHE [11] | percentage damage to the plant, SETFA [12] |
| --- | --- | --- | --- | --- | --- | --- | --- | --- | --- | --- | --- | --- |
| CCOc1cc(C)cc(-c2c(C)n(CC)c(-c3ccc(Cl)c(Cl)c3)c(C(=O)O)c2=O)c1 [Compound 103, 2-(3,4-dichlorophenyl)-5-(3-ethoxy-5-methyl-phenyl)-1-ethyl-6-methyl-4-oxo-pyridine-3-carboxylic acid] | 1 (1=0-20%) | 1 (1=0-20%) | 1 (1=0-20%) | 1 (1=0-20%) | 1 (1=0-20%) | 1 (1=0-20%) | 1 (1=0-20%) | 1 (1=0-20%) | 2 (2=21-40%) | 1 (1=0-20%) | 1 (1=0-20%) | 2 (2=21-40%) |
| CCn1c(C)c(-c2cc(C)cs2)c(=O)c(C(=O)O)c1-c1ccc(Cl)c(Cl)c1 [Compound 86, 2-(3,4-dichlorophenyl)-1-ethyl-6-methyl-5-(4-methyl-2-thienyl)-4-oxo-pyridine-3-carboxylic acid] | 1 (1=0-20%) | 3 (3=41-60%) | 4 (4=61-80%) | 4 (4=61-80%) | 3 (3=41-60%) | 3 (3=41-60%) | 1 (1=0-20%) | 4 (4=61-80%) | 4 (4=61-80%) | 2 (2=21-40%) | 1 (1=0-20%) | 5 (5=81-100%) |
| CCn1c(C)c(-c2ccc(Cl)s2)c(=O)c(C(=O)O)c1-c1ccc(Cl)cc1 [Compound 166, 2-(4-chlorophenyl)-5-(5-chloro-2-thienyl)-1-ethyl-6-methyl-4-oxo-pyridine-3-carboxylic acid] | 0 | 0 | 1 (1=0-20%) | 3 (3=41-60%) | 1 (1=0-20%) | 2 (2=21-40%) | 1 (1=0-20%) | 2 (2=21-40%) | 3 (3=41-60%) | 1 (1=0-20%) | 1 (1=0-20%) | 0 |
| CCn1c(C)c(-c2ccc(C#N)cc2)c(=O)c(C(=O)O)c1-c1ccnc(Cl)c1 [Compound 142, 2-(2-chloro-4-pyridyl)-5-(4-cyanophenyl)-1-ethyl-6-methyl-4-oxo-pyridine-3-carboxylic acid] | 0 | 1 (1=0-20%) | 0 | 2 (2=21-40%) | 2 (2=21-40%) | 3 (3=41-60%) | 1 (1=0-20%) | 0 | 1 (1=0-20%) | 0 | 0 | 1 (1=0-20%) |
| CCn1c(C)c(-c2cc(F)c(OC)c(Cl)c2)c(=O)c(C(=O)O)c1-c1ccc(Cl)c(Cl)c1 [Compound 75, 5-(3-chloro-5-fluoro-4-methoxy-phenyl)-2-(3,4-dichlorophenyl)-1-ethyl-6-methyl-4-oxo-pyridine-3-carboxylic acid] | 1 (1=0-20%) | 1 (1=0-20%) | 1 (1=0-20%) | 1 (1=0-20%) | 2 (2=21-40%) | 1 (1=0-20%) | 1 (1=0-20%) | 1 (1=0-20%) | 2 (2=21-40%) | 1 (1=0-20%) | 1 (1=0-20%) | 1 (1=0-20%) |
| CCn1c(C)c(-c2cc(F)c(OC)c(F)c2)c(=O)c(C(=O)O)c1-c1ccc(Cl)c(Cl)c1 [Compound 84, 2-(3,4-dichlorophenyl)-5-(3,5-difluoro-4-methoxy-phenyl)-1-ethyl-6-methyl-4-oxo-pyridine-3-carboxylic acid] | 1 (1=0-20%) | 1 (1=0-20%) | 1 (1=0-20%) | 3 (3=41-60%) | 3 (3=41-60%) | 1 (1=0-20%) | 1 (1=0-20%) | 2 (2=21-40%) | 3 (3=41-60%) | 3 (3=41-60%) | 3 (3=41-60%) | 4 (4=61-80%) |
| CCn1c(C)c(-c2ccc(OC(F)(F)F)cc2)c(=O)c(C(=O)O)c1-c1ccc(Cl)c(Cl)c1 [Compound 95, 2-(3,4-dichlorophenyl)-1-ethyl-6-methyl-4-oxo-5-[4-(trifluoromethoxy)phenyl]pyridine-3-carboxylic acid] | 1 (1=0-20%) | 2 (2=21-40%) | 1 (1=0-20%) | 3 (3=41-60%) | 2 (2=21-40%) | 3 (3=41-60%) | 2 (2=21-40%) | 3 (3=41-60%) | 3 (3=41-60%) | 1 (1=0-20%) | 1 (1=0-20%) | 4 (4=61-80%) |
| CCn1c(C)c(-c2ccc(Cl)cc2)c(=O)c(C(=O)O)c1-c1ccc(Cl)cn1 [Compound 131, 5-(4-chlorophenyl)-2-(5-chloro-2-pyridyl)-1-ethyl-6-methyl-4-oxo-pyridine-3-carboxylic acid] | 0 | 0 | 0 | 3 (3=41-60%) | 1 (1=0-20%) | 0 | 2 (2=21-40%) | 1 (1=0-20%) | 1 (1=0-20%) | 0 | 0 | 0 |
